Test results as given in article PMC5224920, “Assessing the mechanism and therapeutic potential of modulators of the human Mediator complex-associated protein kinases” (eLife, 2016).
Read-outs that look alike come from different tables or passages of the source.

Assays:
[1] = system: SW620 human colorectal cancer xenografts; test: SW620 human colorectal cancer xenograft, tumor growth inhibition; assay type: in vivo
[2] = system: RKO; test: 24 hour reporter assay, RKO negative control (EEF1A1 promoter-reporter); assay type: cell-based; settings: Homo sapiens, RKO, read-out: 24 hour TCF/LEF Reporter assay IC50
[3] = system: p-STAT1^SER727 in SW620 tumor xenografts; test: p-STAT1 SER727 level in SW620 xenografts (pharmacodynamics); assay type: in vivo, human
Protocol: As with 3, 10 mg/kg of 4 inhibited the pathway biomarker for 6 hr, but was not sufficient for antitumor activity in SW620 xenografts (Figure 2A and Figure 2—source data 1).

[4] = system: LS1034 colorectal cancer xenografts; test: LS1034 colorectal cancer xenograft, tumor growth inhibition; assay type: in vivo, human
[5] = system: Wistar rats; test: 14-day oral tolerability study in rats; assay type: in vivo; settings: for Target organs: Rat
Source text: Animals were culled 24 hr after the last dose. Additional satellite animals for toxicokinetic evaluations were included.

[6] = system: SW837; test: 24 hour TCF/LEF reporter assay, SW837; assay type: cell-based; settings: Homo sapiens, SW837, 24 h, read-out: 24 hour TCF/LEF Reporter assay IC50
[7] = system: COLO205; test: 24 hour TCF/LEF reporter assay, COLO205; assay type: cell-based; settings: Homo sapiens, COLO 205, 24 h, read-out: 24 hour TCF/LEF Reporter assay IC50
[8] = system: SW620; test: 96 hour proliferation GI50, SW620; settings: Homo sapiens, SW-620, 96 h, read-out: 96 hour GI50
[9] = system: LS174T; test: 96 hour proliferation GI50, LS174T; settings: Homo sapiens, read-out: 96 hour GI50
[10] = Mouse PK; assay type: in vivo
[11] = system: SW837; test: 96 hour proliferation GI50, SW837; settings: Homo sapiens, SW837, 96 h, read-out: 96 hour GI50
[12] = system: HT29; test: 96 hour proliferation GI50, HT29; settings: Homo sapiens, HT-29, 96 h, read-out: 96 hour GI50
[13] = system: LS180; test: 24 hour TCF/LEF reporter assay, LS180; assay type: cell-based; settings: Homo sapiens, LS180, 24 h, read-out: 24 hour TCF/LEF Reporter assay IC50
[14] = system: protein kinases; test: Kinase selectivity panel at 1 µM; assay type: biochemical; settings: 1µM test compound
[15] = system: SW948; test: 96 hour proliferation GI50, SW948; settings: Homo sapiens, SW948, 96 h, read-out: 96 hour GI50
[16] = system: MV-4-11 AML xenograft; test: MV-4-11 AML subcutaneous xenograft; assay type: in vivo, human
[17] = system: DLD1; test: 24 hour TCF/LEF reporter assay, DLD1; assay type: cell-based; settings: Homo sapiens, DLD-1, 24 h, read-out: 24 hour TCF/LEF Reporter assay IC50
[18] = system: LS174T; test: 24 hour TCF/LEF reporter assay, LS174T; assay type: cell-based; settings: Homo sapiens, read-out: 24 hour TCF/LEF Reporter assay IC50
[19] = Dog PK; assay type: in vivo; settings: for Dog PK Cl / Dog PK Vd: 0.2mg/kg i.v.
[20] = system: p-STAT1^SER727; test: Inhibition of STAT1 SER727 phosphorylation in cells (target-engagement biomarker)
[21] = system: LS513; test: 96 hour proliferation GI50, LS513; settings: Homo sapiens, LS-513, 96 h, read-out: 96 hour GI50
[22] = system: RKO; test: 96 hour proliferation GI50, RKO; settings: Homo sapiens, read-out: 96 hour GI50
[23] = system: LS174T; test: LS174T basal WNT-pathway luciferase reporter
[24] = system: LS180; test: 96 hour proliferation GI50, LS180; settings: Homo sapiens, LS180, 96 h, read-out: 96 hour GI50
[25] = system: COLO205; test: 96 hour proliferation GI50, COLO205; settings: Homo sapiens, COLO 205, 96 h, read-out: 96 hour GI50
[26] = system: DLD1; test: 96 hour proliferation GI50, DLD1; settings: Homo sapiens, DLD-1, 96 h, read-out: 96 hour GI50
[27] = Rat PK; assay type: in vivo
[28] = system: Beagle dogs; test: 14-day oral tolerability study in dogs; settings: for Target organs: Dog; for Fold of efficacious dose; 10 mg/kg / Fold of efficacious dose; 30 mg/kg: CMPD 4, dog 20 mg/kg
[29] = system: p-STAT1^SER727 in LS1034 colorectal cancer xenografts; test: p-STAT1 SER727 level in LS1034 xenografts (pharmacodynamics); assay type: in vivo, human; settings: 2 hr post-treatment
[30] = biological target: GSK3α (Homo sapiens, UniProt P49840); test: Off-target kinase IC50, GSK3α; assay type: biochemical
[31] = biological target: T1, CDK19 (Homo sapiens, UniProt Q9BWU1); test: CDK19 reporter displacement assay; assay type: binding
T1 construct: purchased Proteros Biostructures GmbH (Germany), assay service

[32] = system: SW837; test: 14 d colony growth assay, SW837; assay type: cell-based, human; settings: 350 nM, mean (range), n = 2
[33] = low dose 5 mg/kg daily oral for 14 days

GSK3α, sequence (P49840 whole entry, species assumed): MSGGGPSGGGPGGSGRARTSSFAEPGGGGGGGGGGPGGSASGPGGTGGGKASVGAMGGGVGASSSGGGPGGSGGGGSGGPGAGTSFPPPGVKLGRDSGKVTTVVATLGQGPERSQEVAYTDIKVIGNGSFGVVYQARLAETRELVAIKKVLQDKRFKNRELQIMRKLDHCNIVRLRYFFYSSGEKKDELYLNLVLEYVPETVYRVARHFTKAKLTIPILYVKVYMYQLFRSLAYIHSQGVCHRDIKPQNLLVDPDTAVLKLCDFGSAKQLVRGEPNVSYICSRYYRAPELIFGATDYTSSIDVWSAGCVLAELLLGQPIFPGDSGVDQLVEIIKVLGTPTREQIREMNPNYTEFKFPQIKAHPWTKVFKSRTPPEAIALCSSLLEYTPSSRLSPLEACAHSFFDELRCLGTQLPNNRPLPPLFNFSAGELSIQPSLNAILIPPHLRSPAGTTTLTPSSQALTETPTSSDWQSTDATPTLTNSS
T1 sequence (Q9BWU1 whole entry): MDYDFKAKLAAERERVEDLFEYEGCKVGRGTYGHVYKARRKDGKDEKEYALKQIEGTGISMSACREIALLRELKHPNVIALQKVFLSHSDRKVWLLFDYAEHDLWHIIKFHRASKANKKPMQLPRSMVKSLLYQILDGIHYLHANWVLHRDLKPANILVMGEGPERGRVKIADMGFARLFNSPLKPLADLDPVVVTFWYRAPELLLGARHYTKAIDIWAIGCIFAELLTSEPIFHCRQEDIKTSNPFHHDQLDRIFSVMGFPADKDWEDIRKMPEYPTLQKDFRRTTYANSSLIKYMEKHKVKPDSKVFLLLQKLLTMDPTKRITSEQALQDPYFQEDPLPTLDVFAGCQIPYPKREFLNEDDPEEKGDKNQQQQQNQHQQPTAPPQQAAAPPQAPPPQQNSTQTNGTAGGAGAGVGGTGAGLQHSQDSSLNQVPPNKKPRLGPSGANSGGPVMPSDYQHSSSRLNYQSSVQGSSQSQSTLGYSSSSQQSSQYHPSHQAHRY
T1 sequence (P24863 whole entry partner): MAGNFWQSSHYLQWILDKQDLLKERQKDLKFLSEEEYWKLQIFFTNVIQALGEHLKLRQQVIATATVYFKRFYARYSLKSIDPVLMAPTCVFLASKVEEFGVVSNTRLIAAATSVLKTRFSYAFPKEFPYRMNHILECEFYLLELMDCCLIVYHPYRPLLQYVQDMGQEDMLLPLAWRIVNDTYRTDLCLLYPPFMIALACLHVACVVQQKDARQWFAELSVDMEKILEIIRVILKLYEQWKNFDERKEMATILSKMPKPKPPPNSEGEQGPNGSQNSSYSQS

Cn1ncc2cc(-c3cnc(N)c(Cl)c3N3CCC4(CCNC4=O)CC3)ccc21 [CMPD 3]
TGI ([1]; 5 x 1 mg/kg x doses/day, day 14, nr = no response, P ns): nr
TGI ([1]; 10 x 1 mg/kg x doses/day, day 14, P ns): 33%
TGI ([1]; 30 x 1 mg/kg x doses/day, day 14, 8 mice, P <0.05): 48%
TGI ([1]; 30 x 1b mg/kg x doses/day, day 14, 9 mice, P <0.01): 44%
TGI ([1]; 30 x 2 (5/7 d) and x 1 (2/7 d)e mg/kg x doses/day, day 14, P <0.01): 44%
IC50 [2]: > 30000 nM
Time biomarker (p-STAT1^SER727) inhibition maintained ([3]; SW620 tumor xenografts, single treatment with 30 mg/kg): approximately 10 hr
TGI ([4]; 30 x 1 (5/7 d) mg/kg x doses/day, day 21, P <0.001): 55%
Target organs ([5]; high dose 20 mg/kg daily oral for 14 days (CMPD 3)): Bone, bone marrow, heart, liver, lung, lymph nodes, pancreas, reproductive tract (m and f), spleen, thymus.
Target organs [5, 33]: Bone, bone, marrow, heart, liver, lung, lymph nodes, pancreas, reproductive tract (m), spleen, thymus.
Target organs ([5]; mid dose 10 mg/kg daily oral for 14 days (CMPD 3)): Bone, bone marrow, heart, liver, lung, lymph nodes, pancreas, reproductive tract (m and f), spleen, thymus.
IC50 [6]: 14 nM
IC50 [7]: 15 nM
GI50 [8]: 1860 nM
GI50 [9]: > 30000 nM
Mouse PK Cl ([10]; 0.2mg/kg i.v.): 10.2 mL/min/kg
Mouse PK Vd ([10]; 0.2mg/kg i.v.): 0.63 L/kg
GI50 [11]: 3110 nM
GI50 [12]: > 30000 nM
IC50 [13]: 28 nM
Off-target activities in protein kinase panel [14]: No off-target activities were detected
GI50 [15]: > 30000 nM
TGI ([16]; 10 mg/kg po qd monotherapy): 100%
IC50 [17]: 173 nM
IC50 [18]: 39 nM
Dog PK Cl [19]: 17.8 mL/min/kg
Dog PK Vd [19]: 1.4 L/kg
IC50 ([20]; read-out: p-STAT1^SER727 IC50, mean ± s.d. or *± range): 22 ± 12 nM
IC50 ([20]; read-out: p-STAT1^SER727 IC50; mean ± s.d. or *± range): 25.5 ± 12 nM
GI50 [21]: > 30000 nM
GI50 [22]: > 30000 nM
IC50 ([23]; Homo sapiens, LS174T, read-out: LS174T IC50): 33.3 ± 12.8 nM
GI50 [24]: 6670 nM
GI50 [25]: > 30000 nM
GI50 [26]: > 30000 nM
Rat PK Cl ([27]; 0.2mg/kg i.v.): 24.8 mL/min/kg
Rat PK Vd ([27]; 0.2mg/kg i.v.): 1.99 L/kg
Target organs [28, 33]: Bone marrow, gastrointestinal mucosa, heart, lymphatic system

Cc1n[nH]c2ncc(C(=O)N3CCC[C@H]3c3ccc(Cl)cc3)cc12 [CMPD 4]
TGI ([1]; 5 x 2 mg/kg x doses/day, day 13, nr = no response, P ns): nr
TGI ([1]; 10 x 1 mg/kg x doses/day, day 13, nr = no response, P ns): nr
TGI ([1]; 50 x 2b mg/kg x doses/day, day 16, P ns): 51%
TGI ([1]; 100 x 1 mg/kg x doses/day, day 16, P ns): 43%
IC50 [2]: > 30000 nM
Time pathway biomarker (p-STAT1^SER727) inhibited ([3]; SW620 xenografts, 10 mg/kg): 6 h
TGI ([4]; 50 x 2 mg/kg x doses/day, day 22, P ns): 52%
TGI ([4]; 100 x 1 mg/kg x doses/day, day 22, P ns): 30%
Fold of efficacious dose; 10 mg/kg ([5]; CMPD 4, rat 10 mg/kg, female): ~2.4
Fold of efficacious dose; 30 mg/kg ([5]; CMPD 4, rat 10 mg/kg, female): ~0.8
Fold of efficacious dose; 10 mg/kg ([5]; CMPD 4, rat 10 mg/kg, male): ~0.9
Fold of efficacious dose; 30 mg/kg ([5]; CMPD 4, rat 10 mg/kg, male): ~0.3
Fold of efficacious dose; 10 mg/kg ([5]; CMPD 4, rat 20 mg/kg, female): ~5.7
Fold of efficacious dose; 30 mg/kg ([5]; CMPD 4, rat 20 mg/kg, female): ~1.9
Fold of efficacious dose; 10 mg/kg ([5]; CMPD 4, rat 20 mg/kg, male): ~3.9
Fold of efficacious dose; 30 mg/kg ([5]; CMPD 4, rat 20 mg/kg, male): ~1.3
Fold of efficacious dose; 10 mg/kg ([5]; CMPD 4, rat 60 mg/kg, female): ~23.1
Fold of efficacious dose; 30 mg/kg ([5]; CMPD 4, rat 60 mg/kg, female): ~7.7
Fold of efficacious dose; 10 mg/kg ([5]; CMPD 4, rat 60 mg/kg, male): ~10.8
Fold of efficacious dose; 30 mg/kg ([5]; CMPD 4, rat 60 mg/kg, male): ~3.6
Target organs ([5]; high dose 60 mg/kg daily oral for 14 days): Bone, bone marrow, brain, heart, intestines, liver, lung, lymph nodes, mammary gland, pancreas, reproductive tract (m and f), skin, spleen, stomach, thymus
Target organs ([5]; low dose 10 mg/kg daily oral for 14 days (CMPD 4)): Bone, bone marrow, intestines, liver, lung, lymph nodes, mammary gland, pancreas, reproductive tract (m and f), skin, spleen, stomach, thymus.
Target organs ([5]; mid dose 20 mg/kg daily oral for 14 days (CMPD 4)): Bone, bone marrow, heart, intestines, liver, lung, lymph nodes, mammary gland, pancreas, reproductive tract (m and f), skin, spleen, stomach, thymus
IC50 [6]: 8 nM
IC50 [7]: 9 nM
Decrease of p-STAT1^SER727 [29]: 58%
p-STAT1^SER727 value normalised to total STAT1 levels ([29]; n = 4, mean ± s.e.m, control 1719 ± 174): 719 ± 46
GI50 [8]: > 30000 nM
GI50 [9]: > 30000 nM
Mouse PK Cl ([10]; 0.2mg/kg i.v.): 22.8 mL/min/kg
Mouse PK F ([10]; 0.2mg/kg i.v. or 0.5mg/kg p.o.): 25%
Vd ([10]; female, NMRI, mouse, in vivo, iv, 0.2mg/kg i.v.): 0.59 L/kg
GI50 [11]: > 30000 nM
GI50 [12]: > 30000 nM
IC50 [13]: 31 nM
GI50 [15]: > 30000 nM
Target inhibition by p-STAT1^SER727 ([16]; 2 hr post-treatment): near maximal target inhibition
IC50 [17]: 97 nM
IC50 [30]: 691 nM
IC50 [18]: 31 nM
Dog PK Cl [19]: 22.5 mL/min/kg
Dog PK Vd [19]: 1.47 L/kg
Dog PK F ([19]; 0.2mg/kg i.v. or 0.5mg/kg p.o.): 39%
IC50 [31]: 3.8 ± 0.4 nM
IC50 ([20]; read-out: p-STAT1^SER727 IC50): 7.7 ± 2.2 nM
GI50 [21]: > 30000 nM
GI50 [22]: > 30000 nM
IC50 ([23]; Homo sapiens, LS174T, read-out: LS174T IC50, basal WNT-pathway luciferase reporter, mean ± s.d. or *± range): 29.5 ± 9.5 nM
IC50 ([23]; read-out: LS174T IC50, basal WNT-pathway luciferase reporter, mean ± s.d. or *± range): 36.2 ± 9.5 nM
14 d colony growth (relative to control) [32]: 0.54 (0.03)
GI50 [24]: > 30000 nM
GI50 [25]: > 30000 nM
GI50 [26]: > 30000 nM
Rat PK Vd ([27]; 0.2mg/kg i.v.): 1.62 L/kg
Rat PK F ([27]; 0.2mg/kg i.v. or 0.5mg/kg p.o.): 66%
clearance ([27]; male, Wistar, rat, in vivo, iv, 0.2mg/kg i.v., read-out: Rat PK Cl (converted)): 25 mL/min/kg
Fold of efficacious dose; 10 mg/kg ([28]; female): ~46
Fold of efficacious dose; 30 mg/kg ([28]; female): ~15
Fold of efficacious dose; 10 mg/kg ([28]; male): ~22
Fold of efficacious dose; 30 mg/kg ([28]; male): ~7
Target organs ([28]; low dose 20 mg/kg daily oral for 14 days): Bone marrow, heart, Intestines, lymphatic system
